In US10647680B2, “Urea compound, preparation method therefor and medical use thereof” (Ancureall Pharmaceutical (Shanghai) Co., Ltd., priority 2016, dated 2020):
Like-named read-outs stand apart in the source and are kept apart here.

Key:
[1] = test system: AU565 (HER2/ErbB2 amp); assay: In vitro growth inhibition (GI50), AU565; type: cell-based; details: Homo sapiens
From the text: Tumor cell line is an effective cell model for studying the inhibition of tumor cell growth or proliferation in vitro. In the present invention, a representative tumor cell line was selected to determine the cell growth inhibition activity of the present compound. All cell lines used were from ATCC, DSMZ, and the Cell Bank of the Chinese Academy of Sciences. Cell culture conditions and methods were in accordance with the requirements of each cell line. Cells were subcultured in vitro for no more than 3 passages each time, and as required, single-clone purification and identification of cell lines could be carried out.
The cell culture media used were RPMI1640 (Gibco), MEM (Gibco), McCOY'S5A (Gibco), and IMDM (Gibco). The complete medium was prepared by supplement with 5˜20% fetal calf serum (Gibco), 1% double-antibiotics (10000 units/mL penicillin and 10000 units/mL), 2 mM glutamine or 1 mM sodium pyruvate, respectively.
Human gastric cancer cell line NCI-N87 (HER2/ErbB2 amp, ATCC), human breast cancer cell line HCC1954 (HER2/ErbB2 amp, ATCC) and ZR-75-30 (HER2/ErbB2 amp, ATCC), human adenocarcinoma cell line AU565 (HER2/ErbB2 amp, ATCC), human lung squamous cell carcinoma cell line NCI-H2170 (HER2/ErbB2 amp, ATCC), human bronchioalveolar adenocarcinoma cell line NCI-H1781 (HER2/ErbB2 Ins G776V,C mutant type, ATCC) were cultured with a 1×RPMI1640 complete medium (10% FBS), respectively. Human lung adenocarcinoma cell line Calu-3 (HER2/ErbB2 amp, ATCC) was cultured with 1×MEM, 10% FBS, 1% double antibody, 1% NEAA (Gibco), 2 mM glutamine and 1 mM sodium pyruvate. The human breast cancer cell line SK-BR-3 (HER2/ErbB2 amp, ATCC) was cultured with a McCOY'S5A complete medium (10% FBS).
Adherent cells were digested with 0.25% pancreatin-EDTA (Gibco). The suspension cells were collected by centrifugation. The supernatant was discarded and the cell pellet was resuspended and counted. Different cell concentrations (5˜10×10^4 cells/mL) were prepared according to the growth cycle of each cell line and then seeded on a 96-well plate (Corning), 100 μL/well. The cells were incubated overnight at 37° C., 5% CO2. The compounds were added to the cells on the second day with 2 wells in parallel. The final concentration of organic solvent shall not exceed 1%. The cells were continually incubated for 3 to 5 days, and then subjected to MTT assay.
The compound of the present invention and the control compound were dissolved in DMSO (Sigma) respectively, with the purity of more than 98%. The compound was stored in a concentration of 10 mM at −20° C. and diluted to 2- or 10-fold series prior to use.
Dojindo CCK8 reagent kit was used as MTT assay. THERMO […] FC meter was used as microplate reader.
For adherent cells, culture medium was removed and immediately replaced with the fresh prepared medium which contains 10% CCK8 reagent (100 μL/well). For the suspension cells, CCK8 was directly added to 10% of the final concentration. The cells were continually incubated for 1˜4 h. When a dark yellow color could be observed in the solvent control wells, the absorbance value at OD450 nm was measured and the cell growth rate was calculated according to the following formula: Cell Growth Rate (%)=100*(T−T0)/(C−T0) T=optical density of drug treatment cell well—optical density of blank control well; T0=optical density of cell well before drug treatment—optical density of blank control well; C=optical density of cell well of solvent control group—optical density of blank control well. The concentration value of 50% inhibition of cell growth (GI50) was calculated according to the drug concentration and cell growth rate curve. The experiment was independently repeated 1˜3 times, and subject to biological statistical analysis. 4. Experimental Results
Tumor cell growth inhibition test was performed by selecting representative compounds (compounds 4, 11, 12, 16, 27, 68, 71, 77, 79, 89 and 116 of the present invention). […]

[2] = test system: MV4-11 (FLT3 ITD+/+ mutant type); assay: In vitro growth inhibition (GI50), MV4-11; type: cell-based, human; details: for growth inhibitory effect on MV4-11 (in words): FLT3-ITD positive cell line MV4-11; for GI50: Homo sapiens; for inhibition activity against the growth of MV4-11 cells compared with AC220: compared with the control compound AC220
[3] = test system: OCI-AML3 (NPMc+ mutant type); assay: In vitro growth inhibition (GI50), OCI-AML3; type: cell-based; details: Homo sapiens, OCI-AML-3; Cell lines of leukemia; read-out: GI 50 OCI- AML3 NPMc+
[4] = MV4-11, Cell lines of leukemia, read-out: GI 50 MV4-11 FLT3 (ITD +/+)
[5] = MV4-11, FLT3 ITD +/+, read-out: GI50
[6] = FLT3-ITD positive-expressing cell line MV4-11, Table 3, read-out: GI50 value, MV4-11

Structure (SMILES) | GI50 [2, 4] | GI50 [2, 5] | GI50 [3] | GI50 [2, 6] | GI50 [1] | growth inhibitory effect on MV4-11 (in words) [2] | inhibition activity against the growth of MV4-11 cells compared with AC220 [2]
CC(C)(C)c1cc(NC(=O)Nc2ccc(-n3cnc4cc(O)ccc43)cc2)no1 [Compound 4, 1-(5-tert-butyl-isoxazol-3-yl)-3-[4-(5-hydroxy-benzimidazol-1-yl)-phenyl]-urea] | 0.1 to 1 nM | 0.12 nM | > 1000 nM |  | > 2500 nM | strong growth inhibitory effects | 
CC(C)(C)c1cc(NC(=O)Nc2ccc(-n3cnc4ccccc43)cc2)[nH]n1 [Compound 68, 1-(4-benzimidazol-1-yl-phenyl)-3-(5-tert-butyl-2H-pyrazol-3-yl)-urea] | 0.1 to 1 nM | 0.48 nM | > 1000 nM | 0.039 to 0.8 nM | > 2500 nM |  | 
COc1ccc2c(c1)ncn2-c1ccc(NC(=O)Nc2cc(C(C)(C)C)n[nH]2)cc1 [Compound 71, 1-(5-tert-butyl-2H-pyrazol-3-yl)-3-[4-(5-methoxyl-benzimidazol-1-yl)-phenyl]-urea] | 0.01 to 0.1 nM | 0.039 nM | > 1000 nM | 0.039 to 0.8 nM | > 2500 nM |  | stronger inhibition activity
COCCOc1ccc2c(c1)ncn2-c1ccc(NC(=O)Nc2cc(C(C)(C)C)n[nH]2)cc1 [Compound 77, 1-(5-tert-butyl-2H-pyrazol-3-yl)-3-{4-[5-(2-methoxyl-ethoxyl)-benzimidazol-1-yl]-phenyl}-urea] | 0.01 to 0.1 nM | 0.093 nM | > 1000 nM | 0.039 to 0.8 nM | > 2500 nM |  | stronger inhibition activity
CC(C)(C)c1cc(NC(=O)Nc2ccc(-n3cnc4cc(OCCO)ccc43)cc2)[nH]n1 [Compound 79, 1-(5-tert-butyl-2H-pyrazol-3-yl)-3-{4-[5-(2-hydroxy-ethoxyl)-benzimidazol-1-yl]-phenyl]urea] | 0.01 to 0.1 nM | 0.047 nM | > 1000 nM |  | > 2500 nM | strong growth inhibitory effects | stronger inhibition activity
CC(C)(C)c1cc(N)n(C(=O)Nc2ccc(-n3cnc4ccccc43)cc2)n1 [Compound 116, 5-amino-3-tert-butyl-pyrazol-1-carboxylic acid (4-benzimidazol-1-yl-phenyl)-amide] | 10 to 100 nM | 1.51 nM | > 1000 nM | 0.039 to 0.8 nM | > 2500 nM |  | 

More lines, main results first:

GI50 [2, 4] | GI50 [2, 5] | GI50 [3] | GI50 [2, 6] | Structure (SMILES) | GI50 [1] | growth inhibitory effect on MV4-11 (in words) [2] | inhibition activity against the growth of MV4-11 cells compared with AC220 [2]
0.01 to 0.1 nM | 0.07 nM | > 1000 nM |  | CC(C)(C)c1cc(NC(=O)Nc2ccc(-n3cnc4cc(OCCO)ccc43)cc2)no1 [Compound 11, 1-(5-tert-butyl-isoxazol-3-yl)-3-{4-[5-(2-hydroxy-ethoxyl)-benzimidazol-1-yl]-phenyl]-urea] | > 2500 nM | strong growth inhibitory effects | stronger inhibition activity
0.1 to 1 nM | 0.48 nM | > 1000 nM | 0.039 to 0.8 nM | CC(C)(C)c1cc(NC(=O)Nc2ccc(-n3cnc4cc(OCCN5CCOCC5)ccc43)cc2)no1 [Compound 16, 1-(5-tert-butyl-isoxazol-3-yl)-3-{4-[5-(2-morpholin-4-yl-ethoxyl)-benzimidazol-1-yl]-phenyl}-urea] | > 2500 nM |  | 
0.1 to 1 nM | 0.78 nM | 100 to 1000 nM | 0.039 to 0.8 nM | CC(C)(C)c1cc(NC(=O)Nc2ccc(-n3cnc4ccc(OCCN5CCOCC5)cc43)cc2)no1 [Compound 27, 1-(5-tert-butyl-isoxazol-3-yl)-3-{4-[6-(2morpholin-4-yl-ethoxyl)-benzimidazol-1-yl]-phenyl}-urea] | > 2500 nM |  | 
0.01 to 0.1 nM | 0.041 nM | 100 to 1000 nM | 0.039 to 0.8 nM | CC(C)(C)c1cc(NC(=O)Nc2ccc(-n3cnc4cc(OCCN5CCOCC5)ccc43)cc2)[nH]n1 [Compound 89, 1-(5-tert-butyl-2H-pyrazol-3-yl)-3-{4-[5-(2-morpholin-4-yl-ethoxyl)-benzimidazol-1-yl]-phenyl}-urea] | > 2500 nM |  | stronger inhibition activity
